Activity calls are given as the source filed them. The calls are words filed in the database; no cut-off is given here.

The values below come from ChEMBL document CHEMBL4270518 (Eur J Med Chem, 2018).

Assay [1] has as its target T1, Protein deacetylase HDAC6 (Homo sapiens, UniProt Q9UBN7).
T1 sequence (Q9UBN7 whole entry): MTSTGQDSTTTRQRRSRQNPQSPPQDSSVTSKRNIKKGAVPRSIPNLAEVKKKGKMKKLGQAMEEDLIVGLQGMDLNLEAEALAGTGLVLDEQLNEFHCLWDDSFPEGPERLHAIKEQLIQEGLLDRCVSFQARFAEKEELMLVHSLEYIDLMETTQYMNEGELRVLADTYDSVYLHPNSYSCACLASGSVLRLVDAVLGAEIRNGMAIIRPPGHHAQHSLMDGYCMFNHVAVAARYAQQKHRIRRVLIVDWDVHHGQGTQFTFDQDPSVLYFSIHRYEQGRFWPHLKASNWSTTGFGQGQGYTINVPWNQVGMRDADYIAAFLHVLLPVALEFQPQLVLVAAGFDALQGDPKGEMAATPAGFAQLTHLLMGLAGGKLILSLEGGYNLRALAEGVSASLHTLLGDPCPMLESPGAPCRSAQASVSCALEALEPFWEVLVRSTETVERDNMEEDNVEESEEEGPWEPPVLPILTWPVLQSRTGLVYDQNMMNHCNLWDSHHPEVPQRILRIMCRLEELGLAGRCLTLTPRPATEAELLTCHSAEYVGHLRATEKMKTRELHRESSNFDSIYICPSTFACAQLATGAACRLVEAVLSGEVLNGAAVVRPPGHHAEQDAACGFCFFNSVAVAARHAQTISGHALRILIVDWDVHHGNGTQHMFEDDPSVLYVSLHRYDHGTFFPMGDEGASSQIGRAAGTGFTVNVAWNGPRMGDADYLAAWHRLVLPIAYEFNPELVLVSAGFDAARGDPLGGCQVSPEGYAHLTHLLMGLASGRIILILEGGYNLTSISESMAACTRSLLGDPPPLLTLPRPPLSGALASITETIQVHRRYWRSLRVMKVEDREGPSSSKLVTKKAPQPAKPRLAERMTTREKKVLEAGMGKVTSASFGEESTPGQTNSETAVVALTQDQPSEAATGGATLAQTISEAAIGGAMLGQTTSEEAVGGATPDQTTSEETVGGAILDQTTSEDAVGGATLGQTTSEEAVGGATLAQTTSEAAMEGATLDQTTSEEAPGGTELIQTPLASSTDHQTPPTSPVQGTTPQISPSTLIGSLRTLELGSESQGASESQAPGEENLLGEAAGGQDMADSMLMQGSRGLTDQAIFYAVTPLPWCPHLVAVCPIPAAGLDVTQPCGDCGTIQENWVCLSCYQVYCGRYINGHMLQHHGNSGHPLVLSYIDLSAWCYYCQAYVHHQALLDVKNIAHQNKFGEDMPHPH
Kind of assay: Inhibition of human recombinant HDAC6 using RHKKAcAMC as substrate by fluorescence assay.

Assay [2] concerns MV4-11. Briefly: Inhibition of class 1 HDAC in human MV4-11 cells assessed as hyperacetylation of histone H3 at 200 nM after 24 hrs by Western blot analysis. Format: cell-based.
In assay [3] the test system is MV4-11. Briefly: Induction of apoptosis in human MV4-11 cells at 30 nM after 24 to 48 hrs by Annexin V-PI staining based flow cytometry. Format: functional, cell-based.
For assay [4], the system named is MV4-11. Kind of assay: Induction of apoptosis in human MV4-11 cells at 5 uM after 24 to 48 hrs by Annexin V-PI staining based flow cytometry. The format is functional, cell-based.
In a further assay the target is T2, Histone deacetylase 8 (Homo sapiens, UniProt Q9BY41).
T2 sequence (Q9BY41 whole entry): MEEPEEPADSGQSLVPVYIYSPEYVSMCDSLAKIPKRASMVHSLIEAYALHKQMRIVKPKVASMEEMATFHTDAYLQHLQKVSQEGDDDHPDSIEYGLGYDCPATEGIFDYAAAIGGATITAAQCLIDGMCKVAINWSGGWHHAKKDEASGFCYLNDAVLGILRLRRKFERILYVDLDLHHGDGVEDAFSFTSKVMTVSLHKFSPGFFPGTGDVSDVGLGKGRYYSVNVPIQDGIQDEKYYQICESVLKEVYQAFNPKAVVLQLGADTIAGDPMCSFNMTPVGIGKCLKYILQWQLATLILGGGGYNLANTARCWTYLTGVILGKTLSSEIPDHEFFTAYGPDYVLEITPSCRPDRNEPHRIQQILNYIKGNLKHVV
Briefly: Inhibition of human recombinant HDAC8 using RHKAcKAcAMC as substrate by fluorescence assay.

Assay [5] has as its system MV4-11. Kind of assay: Induction of apoptosis in human MV4-11 cells up to 1 uM after 24 to 48 hrs by Annexin V-PI staining based flow cytometry. Format: functional, cell-based.
The test system of assay [6] is MV4-11. Kind of assay: Cell cycle arrest in human MV4-11 cells up to 1 uM after 24 to 48 hrs by propidium iodide staining based flow cytometry. Format: functional.
The next assay deals with Histone deacetylase 2 (Homo sapiens, UniProt Q92769). Kind of assay: Inhibition of human recombinant HDAC2 using RHKKAcAMC as substrate by fluorescence assay.
Histone deacetylase 2, sequence (Q92769 whole entry): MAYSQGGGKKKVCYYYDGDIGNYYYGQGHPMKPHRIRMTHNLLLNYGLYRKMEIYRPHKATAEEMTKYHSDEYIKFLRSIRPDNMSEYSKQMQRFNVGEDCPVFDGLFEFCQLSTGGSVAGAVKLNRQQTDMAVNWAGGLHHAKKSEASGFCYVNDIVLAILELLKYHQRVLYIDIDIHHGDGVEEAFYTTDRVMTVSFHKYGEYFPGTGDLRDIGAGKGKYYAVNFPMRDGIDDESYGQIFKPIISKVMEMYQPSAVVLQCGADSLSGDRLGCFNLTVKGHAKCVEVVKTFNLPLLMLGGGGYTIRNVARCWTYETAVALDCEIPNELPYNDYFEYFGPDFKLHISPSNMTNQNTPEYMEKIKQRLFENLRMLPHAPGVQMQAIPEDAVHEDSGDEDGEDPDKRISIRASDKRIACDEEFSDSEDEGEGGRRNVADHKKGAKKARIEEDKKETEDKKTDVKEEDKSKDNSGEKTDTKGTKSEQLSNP
For assay [7], the species on record is Homo sapiens. Briefly: Selectivity ratio of IC50 for human recombinant HDAC4 to IC50 for human recombinant HDAC6.
For assay [8], the target named is T3, Protein deacetylase HDAC6 (Homo sapiens) (UniProt Q9UBN7).
T3 sequence (whole entry): T1 sequence (Q9UBN7 whole entry)
Kind of assay: Inhibition of HDAC6 in human MV4-11 cells assessed as accumulation of acetylated alpha-tubulin at 50 nM after 24 hrs by Western blot analysis. Format: cell-based.

For assay [9], the target named is T4, Polyamine deacetylase HDAC10 (Homo sapiens, UniProt Q969S8).
T4 sequence (Q969S8 whole entry): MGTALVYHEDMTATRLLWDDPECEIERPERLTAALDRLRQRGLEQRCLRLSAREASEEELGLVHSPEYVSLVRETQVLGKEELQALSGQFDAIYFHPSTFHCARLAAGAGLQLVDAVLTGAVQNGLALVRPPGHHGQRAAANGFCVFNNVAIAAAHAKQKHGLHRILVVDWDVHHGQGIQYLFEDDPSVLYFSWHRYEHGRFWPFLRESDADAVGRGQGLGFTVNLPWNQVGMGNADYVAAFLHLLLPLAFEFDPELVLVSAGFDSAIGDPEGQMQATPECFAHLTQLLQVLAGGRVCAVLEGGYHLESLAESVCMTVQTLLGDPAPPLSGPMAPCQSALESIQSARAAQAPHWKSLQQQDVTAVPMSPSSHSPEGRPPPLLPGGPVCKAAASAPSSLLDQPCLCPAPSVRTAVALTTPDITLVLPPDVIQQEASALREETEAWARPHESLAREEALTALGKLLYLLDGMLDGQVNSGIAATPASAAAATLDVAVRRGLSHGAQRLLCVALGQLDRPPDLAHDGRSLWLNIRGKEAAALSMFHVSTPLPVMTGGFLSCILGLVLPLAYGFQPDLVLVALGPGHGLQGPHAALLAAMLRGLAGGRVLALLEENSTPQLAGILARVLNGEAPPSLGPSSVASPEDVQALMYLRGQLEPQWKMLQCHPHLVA
Briefly: Inhibition of human recombinant HDAC10 using RHKKAcAMC as substrate by fluorescence assay.

The next assay has as its target Histone deacetylase 1 (Homo sapiens, UniProt Q13547). Briefly: Inhibition of human recombinant HDAC1 using RHKKAcAMC as substrate by fluorescence assay.
Assay [10] addresses T3, Protein deacetylase HDAC6 (Homo sapiens). Briefly: Inhibition of HDAC6 in human MV4-11 cells assessed as accumulation of acetylated alpha-tubulin at 200 nM by Western blot analysis. The settings on record: TDE = time-dependent effect. Format: cell-based.
Assay [11] shares this target. Kind of assay: Inhibition of HDAC6 in human MV4-11 cells assessed as accumulation of acetylated alpha-tubulin at 200 nM after 10 to 1440 mins by Western blot analysis. The format is cell-based.
Assay [12] is filed under the species Homo sapiens. Briefly: Selectivity ratio of IC50 for human recombinant HDAC2 to IC50 for human recombinant HDAC6.
Assay [13] is filed under the species Homo sapiens. Kind of assay: Selectivity ratio of IC50 for human recombinant HDAC1 to IC50 for human recombinant HDAC6.
For assay [14], the species on record is Homo sapiens. Kind of assay: Selectivity ratio of IC50 for human recombinant HDAC8 to IC50 for human recombinant HDAC6.
The next assay addresses Histone deacetylase 4 (Homo sapiens, UniProt P56524). Briefly: Inhibition of human recombinant HDAC4 using fluorogenic trifluoroacetyl lysine as substrate by fluorescence assay.
In assay [15] the test system is MV4-11. Kind of assay: Inhibition of class 1 HDAC in human MV4-11 cells assessed as hyperacetylation of histone H3 at higher concentration after 24 hrs by Western blot analysis. Format: cell-based.

Histone deacetylase 1, sequence (Q13547 whole entry): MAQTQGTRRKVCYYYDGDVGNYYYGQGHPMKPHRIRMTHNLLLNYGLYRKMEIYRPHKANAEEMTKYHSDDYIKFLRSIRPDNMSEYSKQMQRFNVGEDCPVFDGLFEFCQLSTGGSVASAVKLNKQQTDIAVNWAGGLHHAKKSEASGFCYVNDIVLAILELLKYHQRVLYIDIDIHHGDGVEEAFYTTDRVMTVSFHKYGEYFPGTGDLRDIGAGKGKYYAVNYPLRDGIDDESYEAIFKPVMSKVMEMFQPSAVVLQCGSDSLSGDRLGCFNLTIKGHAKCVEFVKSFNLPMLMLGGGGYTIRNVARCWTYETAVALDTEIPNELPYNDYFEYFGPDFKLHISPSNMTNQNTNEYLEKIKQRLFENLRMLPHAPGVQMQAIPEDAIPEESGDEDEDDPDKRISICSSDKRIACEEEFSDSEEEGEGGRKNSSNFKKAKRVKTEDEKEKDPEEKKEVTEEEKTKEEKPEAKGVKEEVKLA
Histone deacetylase 4, sequence (P56524 whole entry): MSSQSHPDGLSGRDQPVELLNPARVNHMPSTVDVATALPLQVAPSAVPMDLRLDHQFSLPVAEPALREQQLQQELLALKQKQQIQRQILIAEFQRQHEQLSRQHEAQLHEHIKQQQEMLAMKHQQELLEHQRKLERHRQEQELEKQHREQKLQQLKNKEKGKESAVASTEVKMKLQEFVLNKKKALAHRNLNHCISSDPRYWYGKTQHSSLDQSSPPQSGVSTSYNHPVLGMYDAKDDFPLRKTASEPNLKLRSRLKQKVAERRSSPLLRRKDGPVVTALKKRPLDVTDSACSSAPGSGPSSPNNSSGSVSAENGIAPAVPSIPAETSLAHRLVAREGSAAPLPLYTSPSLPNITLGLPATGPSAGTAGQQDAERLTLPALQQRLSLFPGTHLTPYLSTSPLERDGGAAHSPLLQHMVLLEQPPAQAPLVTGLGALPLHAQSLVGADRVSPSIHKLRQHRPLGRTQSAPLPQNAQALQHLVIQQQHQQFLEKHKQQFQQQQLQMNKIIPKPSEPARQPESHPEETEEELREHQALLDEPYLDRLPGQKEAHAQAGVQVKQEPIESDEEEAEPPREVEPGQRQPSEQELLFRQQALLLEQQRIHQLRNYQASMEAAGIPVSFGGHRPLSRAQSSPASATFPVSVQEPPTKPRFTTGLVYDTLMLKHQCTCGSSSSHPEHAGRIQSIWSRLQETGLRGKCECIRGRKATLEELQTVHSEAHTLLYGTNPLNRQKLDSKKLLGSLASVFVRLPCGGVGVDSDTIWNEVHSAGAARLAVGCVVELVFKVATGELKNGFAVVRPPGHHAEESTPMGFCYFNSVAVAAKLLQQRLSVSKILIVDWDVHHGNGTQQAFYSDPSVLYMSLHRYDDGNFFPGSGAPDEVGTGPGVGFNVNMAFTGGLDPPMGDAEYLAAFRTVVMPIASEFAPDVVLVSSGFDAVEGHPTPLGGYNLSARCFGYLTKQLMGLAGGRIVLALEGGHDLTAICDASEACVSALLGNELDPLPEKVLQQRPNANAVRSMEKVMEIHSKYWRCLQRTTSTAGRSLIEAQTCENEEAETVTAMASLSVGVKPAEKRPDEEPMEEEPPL

Take `CCN1CC(=O)N2Cc3c(c4ccccc4n3Cc3ccc(C(=O)NO)cc3)CC2C1=O` (centres undefined): in assay [1], the concentration for half-maximal inhibition (IC50) stood at 8.03 nM. In addition, the inhibition entry with MV4-11 [2] is “Active”.

For the compound `Cc1[nH]c2ccccc2c1CCNCc1ccc(/C=C/C(=O)NO)cc1`, the outcome with MV4-11 [3] was Active.

As to `CCCN1CC(=O)N2Cc3c(c4cc(OC)ccc4n3Cc3ccc(C(=O)NO)cc3)CC2C1=O` (centres undefined), the IC50 in assay [1] was 1.66 nM.

Consider `CCCN1CC(=O)N2[C@H](Cc3c(n(Cc4ccc(C(=O)NO)cc4)c4ccccc34)[C@H]2C)C1=O`, for which, in assay [1], the 50% inhibitory concentration (IC50) amounted to 18.5 nM.

Regarding `CN1C(=O)C2Cc3c(n(Cc4ccc(C(=O)NO)cc4)c4ccccc34)CN2C1=O` (centres undefined), the concentration for half-maximal inhibition (IC50) in assay [1] worked out at 2.38 nM.

For `CN1CC(=O)N2Cc3c(c4ccccc4n3Cc3ccc(C(=O)NO)cc3)CC2C1=O` (centres undefined), in [1], the half-inhibitory concentration (IC50) stood at 13.6 nM.

As to `CC(C)CCN1CC(=O)N2Cc3c(c4ccccc4n3Cc3ccc(C(=O)NO)cc3)CC2C1=O` (centres undefined), the IC50 in assay [1] is 24.1 nM. Besides, in the assay with MV4-11 [2], the inhibition entry is “Active”.

`Nc1ccccc1NC(=O)c1ccc(CNC(=O)OCc2cccnc2)cc1`: the inhibition entry with MV4-11 [2] is “Active”. The result in the assay with MV4-11 [4] was Active.

As for `CC(C)CN1CC(=O)N2Cc3c(c4ccccc4n3Cc3ccc(C(=O)NO)cc3)CC2C1=O` (centres undefined), the concentration for half-maximal inhibition (IC50) in assay [1] was 3.78 nM. Further, the inhibition entry in the assay on MV4-11 [2] was “Active”.

With `CCCN1CC(=O)N2[C@H](C)c3c(c4ccccc4n3Cc3ccc(C(=O)NO)cc3)C[C@H]2C1=O`, the IC50 in assay [1] is 60.7 nM.

In the case of `CCCN1CC(=O)N2Cc3c(c4cc(O)ccc4n3Cc3ccc(C(=O)NO)cc3)CC2C1=O` (centres undefined), the 50% inhibitory concentration (IC50) in [1] came to 0.89 nM.

In the case of `CCCN1CC(=O)N2Cc3c(c4ccccc4n3Cc3ccc(C(=O)NO)cc3)CC2C1=O` (centres undefined), the IC50 was 747 nM at Histone deacetylase 8; 3.73 nM in assay [1]; 3340 nM at Histone deacetylase 2; 39500 nM in assay [9]; 8450 nM at Histone deacetylase 1; 20500 nM at Histone deacetylase 4. In addition, the result with MV4-11 [5] and in the assay with MV4-11 [6] was inactive. In addition, the inhibition entry (in the assay with MV4-11 [2]; in assay [8]; in [11]; in the assay with MV4-11 [15]) was “Active” throughout. The Ratio IC50 is 5500 in the assay listed under Homo sapiens [7], 900 in the assay filed under Homo sapiens [12], 2260 in the assay filed under Homo sapiens [13] and 200 in the assay listed under Homo sapiens [14]. Further, the inhibition entry in assay [10] is “Tde”.

Take `CCCN1CC(=O)N2[C@H](Cc3c(n(Cc4ccc(C(=O)NO)cc4)c4ccccc34)[C@@H]2C)C1=O`: the concentration for half-maximal inhibition (IC50) was determined as 168 nM at Histone deacetylase 8; 1.8 nM in assay [1]; 1870 nM at Histone deacetylase 2; 1510 nM in assay [9]; 1050 nM at Histone deacetylase 1; 1440 nM at Histone deacetylase 4. Also, the result with MV4-11 [5] and in the assay with MV4-11 [6] was inactive.

As for `CCCN1CC(=O)N2[C@@H](Cc3c(n(Cc4ccc(C(=O)NO)cc4)c4ccccc34)[C@@H]2C)C1=O`, the half-maximal inhibitory concentration (IC50) in [1] was 83.5 nM.

Regarding `CCCN1C(=O)C2Cc3c(n(Cc4ccc(C(=O)NO)cc4)c4ccccc34)CN2C1=O` (centres undefined), the IC50 in assay [1] was determined as 10.1 nM. Besides, the inhibition entry in the assay on MV4-11 [2] is “Active”.

Regarding `CCCN1CC(=O)N2Cc3c(c4cc(OCc5ccccc5)ccc4n3Cc3ccc(C(=O)NO)cc3)CC2C1=O` (centres undefined), the IC50 in assay [1] came to 1.25 nM.

For `CCCCN1CC(=O)N2Cc3c(c4ccccc4n3Cc3ccc(C(=O)NO)cc3)CC2C1=O` (centres undefined), the IC50 in assay [1] worked out at 3.26 nM. Besides, the inhibition entry in the assay on MV4-11 [2] is “Active”.

Take `CCCCN1C(=O)C2Cc3c(n(Cc4ccc(C(=O)NO)cc4)c4ccccc34)CN2C1=O` (centres undefined): the half-inhibitory concentration (IC50) in assay [1] is 9.32 nM.

Consider `CCN1C(=O)C2Cc3c(n(Cc4ccc(C(=O)NO)cc4)c4ccccc34)CN2C1=O` (centres undefined), for which, in assay [1], the IC50 was determined as 4.54 nM. Moreover, the inhibition result in the assay on MV4-11 [2] is “Active”.
